# Measured values reported in patent US6525001B1, “Substituted pyrimidine and pyridine herbicides” (Mid-American Commercialization Corporation, priority 1997, dated 2003).
# Legend:
# Format in all cases: in vivo
# [1] = tested on: scentless chamomile (Matricaria inodora); assay: Test D; settings: PREEMERGENCE
# [2] = tested on: black nightshade (Solanum nigra); assay: Test D; settings: PREEMERGENCE
# [3] = tested on: spring barley (Hordeum vulgare); assay: Test D; set-up: key: 0 is no effect; settings: PREEMERGENCE
# [4] = tested on: chickweed (Stellaria media); assay: Test D; settings: PREEMERGENCE
# [5] = tested on: alexandergrass (Brachiaria plantaginea); assay: Test E pre-/postemergence/post directed; set-up: key: 0 is no injury; 100 is complete control; settings: PREEMERGENCE
# Method in brief: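 Greenhouse pot-grown plants; compound in non-phytotoxic solvent with surfactant applied preemergence to soil within one day of planting, postemergence at two to four leaf stage (three to twenty cm), or post-directed to plant base and soil. Visual injury rated 13 to 21 days after application, 0 (none) to 100 (complete control).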
# [6] = tested on: common poppy (Papaver rhoeas); assay: Test D; set-up: key: 0 is no effect; 100 is complete control; settings: PREEMERGENCE
# [7] = tested on: lambsquarters (Chenopodium album); assay: Test D; settings: POSTEMERGENCE
# Description: (§1) Compounds evaluated in this test were formulated in a non-phytotoxic solvent mixture which included a surfactant and applied to plants that were in the 1- to 4-leaf stage (postemergence application). A mixture of sandy loam soil and greenhouse potting mix in a 60:40 ratio was used for the postemergence test.
# (§2) Plantings of these crops and weed species were adjusted to produce plants of appropriate size for the postemergence test. All plant species were grown using normal greenhouse practices. Crop and weed species include alfalfa (Medicago sativa), annual bluegrass (Poa annua), blackgrass (Alopecurus myosuroides), black nightshade (Solanum nigra), chickweed (Stellaria media), common poppy (Papaver rhoeas), deadnettle (Lamium amplexicaule), downy brome (Bromus tectorum), field violet (Viola arvensis), galium 2 (Galium aparine), green foxtail (Setaria viridis), Italian ryegrass (Lolium multiflorum), jointed goatgrass (Aegilops cylindrica), kochia (Kochia scoparia), lambsquarters (Chenopodium album), lentil (Lens culinaris), littleseed canarygrass (Phalaris minor), pea (Pisum sativum), potato (Solanum tuberosum), rape (Brassica napus), redroot pigweed (Amaranthus retroflexus), Russian thistle (Salsola kali), scentless chamomile (Matricaria inodora), sorghum (Sorghum vulgare), spring barley (Hordeum vulgare), sugar beet (Beta vulgaris), sunflower (Helianthus annuus), ivyleaf speedwell (Veronica hederaefolia), spring wheat (Triticum aestivum), winter wheat (Triticum aestivum), wild buckwheat (Polygonum convolvulus), wild mustard (Sinapis arvensis), wild oat (Avena fatua), windgrass (Apera spica-venti) and winter barley (Hordeum vulgare).
# (§3) Treated plants and untreated controls were maintained in a greenhouse for approximately 21 to 28 days, after which all treated plants were compared to untreated controls and visually evaluated. Plant response ratings, summarized in Table D, are based upon a 0 to 100 scale where 0 is no effect and 100 is complete control. A dash response (−) means no test result.
# [8] = tested on: deadnettle (Lamium amplexicaule); assay: Test D; set-up: key: 0 is no effect; 100 is complete control; settings: POSTEMERGENCE
# Description: as §1, §2, §3
# [9] = tested on: common poppy (Papaver rhoeas); assay: Test D; set-up: key: 0 is no effect; 100 is complete control; settings: POSTEMERGENCE
# Description: as §1, §2, §3
# rape (Brassica napus) = assay: Test D; set-up: key: 0 is no effect; 100 is complete control; settings: POSTEMERGENCE
# Description: as §1, §2, §3
# [10] = tested on: wild mustard (Sinapis arvensis); assay: Test D; set-up: key: 0 is no effect; 100 is complete control; settings: POSTEMERGENCE
# Description: as §1, §2, §3
# [11] = tested on: black nightshade (Solanum nigra); assay: Test D; set-up: key: 0 is no effect; 100 is complete control; settings: POSTEMERGENCE
# Description: as §1, §2, §3
# [12] = tested on: sugar beet (Beta vulgaris); assay: Test D; set-up: key: 0 is no effect; 100 is complete control; settings: POSTEMERGENCE
# Description: as §1, §2, §3
# [13] = tested on: chickweed (Stellaria media); assay: Test D; set-up: key: 0 is no effect; 100 is complete control; settings: POSTEMERGENCE
# Description: as §1, §2, §3
smiles,measurement,setting,value
CCc1cnc(-n2ccc(C(F)(F)F)n2)nc1Cc1cccc(C(F)(F)F)c1 [Compound 46],"Plant response rating, Scentless chamo",[1]; Rate 31 g/ha,65
same,"Plant response rating, Scentless chamo",[1]; Rate 62 g/ha,70
same,"Plant response rating, Blk nightshade",[2]; Rate 31 g/ha,50
same,"Plant response rating, Blk nightshade",[2]; Rate 62 g/ha,50
same,"Plant response rating, Spring Barley",[3]; Rate 31 g/ha,30
same,"Plant response rating, Spring Barley",[3]; Rate 62 g/ha,5
same,"Plant response rating, Chickweed",[4]; Rate 31 g/ha,70
same,"Plant response rating, Chickweed",[4]; Rate 62 g/ha,70
same,"Plant response rating, Alexandergrass",[5]; Rate 32 g/ha,0
same,"Plant response rating, Alexandergrass",[5]; Rate 64 g/ha,0
same,"Plant response rating, Common poppy",[6]; Rate 31 g/ha,100
same,"Plant response rating, Common poppy",[6]; Rate 62 g/ha,100
COc1cnc(-c2ccc(C(F)(F)F)cc2)nc1Cc1cccc(C(F)(F)F)c1 [Compound 23],"Plant response rating, Alexandergrass",[5]; Rate 32 g/ha,0
same,"Plant response rating, Alexandergrass",[5]; Rate 64 g/ha,0
CCc1cnc(-c2ccc(C(F)(F)F)cc2)nc1Cc1cccc(C(F)(F)F)c1 [Compound 22],"Plant response rating, Scentless chamo",[1]; Rate 62 g/ha,60
same,"Plant response rating, Scentless chamo",[1]; Rate 125 g/ha,70
same,"Plant response rating, Scentless chamo",[1]; Rate 250 g/ha,70
same,"Plant response rating, Lambsquarters",[7]; Rate 62 g/ha,60
same,"Plant response rating, Lambsquarters",[7]; Rate 125 g/ha,60
same,"Plant response rating, Blk nightshade",[2]; Rate 62 g/ha,10
same,"Plant response rating, Blk nightshade",[2]; Rate 125 g/ha,60
same,"Plant response rating, Blk nightshade",[2]; Rate 250 g/ha,50
same,"Plant response rating, Deadnettle",[8]; Rate 62 g/ha,50
same,"Plant response rating, Deadnettle",[8]; Rate 125 g/ha,90
same,"Plant response rating, Common poppy",[9]; Rate 62 g/ha,100
same,"Plant response rating, Common poppy",[9]; Rate 125 g/ha,100
same,"Plant response rating, Rape",rape (Brassica napus); Rate 62 g/ha,90
same,"Plant response rating, Rape",rape (Brassica napus); Rate 125 g/ha,90
same,"Plant response rating, Wild mustard",[10]; Rate 62 g/ha,100
same,"Plant response rating, Wild mustard",[10]; Rate 125 g/ha,100
same,"Plant response rating, Blk nightshade",[11]; Rate 62 g/ha,90
same,"Plant response rating, Blk nightshade",[11]; Rate 125 g/ha,100
same,"Plant response rating, Sugar beet",[12]; Rate 62 g/ha,100
same,"Plant response rating, Sugar beet",[12]; Rate 125 g/ha,100
same,"Plant response rating, Chickweed",[13]; Rate 62 g/ha,60
same,"Plant response rating, Chickweed",[13]; Rate 125 g/ha,100
same,"Plant response rating, Spring Barley",[3]; Rate 62 g/ha,0
same,"Plant response rating, Spring Barley",[3]; Rate 125 g/ha,10
same,"Plant response rating, Spring Barley",[3]; Rate 250 g/ha,2
same,"Plant response rating, Chickweed",[4]; Rate 62 g/ha,40
same,"Plant response rating, Chickweed",[4]; Rate 125 g/ha,70
same,"Plant response rating, Chickweed",[4]; Rate 250 g/ha,30
same,"Plant response rating, Common poppy",[6]; Rate 62 g/ha,60
same,"Plant response rating, Common poppy",[6]; Rate 125 g/ha,70
same,"Plant response rating, Common poppy",[6]; Rate 250 g/ha,70
Cc1cnc(-n2cnc(C(F)(F)F)c2)nc1Cc1cccc(C(F)(F)F)c1 [Compound 44],"Plant response rating, Alexandergrass",[5]; Rate 32 g/ha,0
